According to US11952349B2, “Anti-cancer nuclear hormone receptor-targeting compounds” (Nuvation Bio Inc., priority 2019, dated 2024):
pIC50: −log10 of the molar value. Read-outs that look alike come from different tables or passages of the source.

Target: T1, AR, cytosol from LnCaP cells (Homo sapiens, UniProt P10275, T878A)
T1 construct: AR in LNCaP cytosol was used; endogenous in cells; host or cells: LNCaP cells (cytosol)
T1 sequence (P10275 1-920 T878A): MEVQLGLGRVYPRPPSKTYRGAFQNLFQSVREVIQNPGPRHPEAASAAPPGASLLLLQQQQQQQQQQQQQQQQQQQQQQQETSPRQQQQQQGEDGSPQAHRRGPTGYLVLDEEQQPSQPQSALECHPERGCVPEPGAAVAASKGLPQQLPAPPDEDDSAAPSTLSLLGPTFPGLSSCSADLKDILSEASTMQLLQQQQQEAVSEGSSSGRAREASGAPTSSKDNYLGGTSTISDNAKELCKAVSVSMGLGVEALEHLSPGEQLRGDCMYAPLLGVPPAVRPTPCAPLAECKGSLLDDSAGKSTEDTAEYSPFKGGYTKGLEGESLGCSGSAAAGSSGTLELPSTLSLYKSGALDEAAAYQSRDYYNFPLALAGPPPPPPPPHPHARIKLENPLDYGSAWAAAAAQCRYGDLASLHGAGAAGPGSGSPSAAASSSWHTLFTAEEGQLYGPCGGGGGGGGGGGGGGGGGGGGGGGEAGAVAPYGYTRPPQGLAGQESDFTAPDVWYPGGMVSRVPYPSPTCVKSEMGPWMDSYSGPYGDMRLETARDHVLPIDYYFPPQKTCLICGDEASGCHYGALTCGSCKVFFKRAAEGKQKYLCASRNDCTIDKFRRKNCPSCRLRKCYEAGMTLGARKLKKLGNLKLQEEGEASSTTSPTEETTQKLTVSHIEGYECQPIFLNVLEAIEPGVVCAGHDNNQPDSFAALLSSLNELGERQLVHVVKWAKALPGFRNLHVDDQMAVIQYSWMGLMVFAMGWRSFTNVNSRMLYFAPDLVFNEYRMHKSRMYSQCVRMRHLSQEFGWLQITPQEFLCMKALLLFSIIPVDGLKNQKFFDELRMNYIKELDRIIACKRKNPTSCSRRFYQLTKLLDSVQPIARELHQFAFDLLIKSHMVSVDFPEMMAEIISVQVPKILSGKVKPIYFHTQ
Assay: AR binding assay, 3H-R1881 (Biological Example 2)
Description: AR binding assay: To assess AR binding, test compound (top dose […], 4 fold serial dilution, 8 point dose response) and control (progesterone) were transferred to the assay plate. Cytosol from LnCaP cells was added to the plate, followed by addition of radiolabeled ^3H-R1881 at a final concentration of 1 nM. The plate was sealed, and the reaction was incubated at 300 rpm at 4° C. for 24 hrs. Radioligand absorption buffer (10 mM Tris-HCl, pH 7.4; 1.5 mM EDTA; 1 mM DTT; 0.25% charcoal; 0.0025% dextran) was then added to the plate, mixed, and incubated at 4° C. for 15 minutes. The plate was then centrifuged at 3000 rpm for 30 minutes at 4° C. The supernatant was transferred to the scint-tube and Tri-carb was used for scintillation counting. The data was analyzed using GraphPadPrism v5.0 and binding IC50 was determined as the concentration where 50% inhibition of radioligand binding was observed.

[1] = Table 8, 3H-R1881 1 nM, read-out: AR binding

Row | SMILES | pIC50 [1] | pIC50 | also measured
1 | CC#C[C@]1(O)CC[C@H]2[C@@H]3CCC4=CC(=O)CCC4=C3[C@@H](c3ccc(N(C)CCCCCC(=O)NCCOCCOCC(=O)N4CCN(C(=O)c5cc(Cc6n[nH]c(=O)c7ccccc67)ccc5F)CC4)cc3)C[C@@]21C [Compound 1429, N-(2-(2-(2-(4-(2-fluoro-5-((4-oxo-3,4-dihydrophthalazin-1-yl)methyl)benzoyl)piperazin-1-yl)-2-oxoethoxy)ethoxy)ethyl)-6-((4-((8S,11R,13S,14S,17S)-17-hydroxy-13-methyl-3-oxo-17-(prop-1-ynyl)-2,3,6,7,8,11,12,13,14,15,16,17-dodecahydro-1H-cyclopenta[a]phenanthren-11-yl)phenyl)(methyl)amino)hexanamide] | 7.00 to 8.00 | – | –
2 | CC(=O)O[C@]1(C(C)=O)CC[C@H]2[C@@H]3CCC4=CC(=O)CCC4=C3[C@@H](c3ccc(N(C)CCCCCC(=O)NCCOCCOCC(=O)N4CCN(C(=O)c5cc(Cc6n[nH]c(=O)c7ccccc67)ccc5F)CC4)cc3)C[C@@]21C [Compound 1384, (8S,11R,13S,14S,17R)-17-acetyl-11-(4-((6-(2-(2-(2-(4-(2-fluoro-5-((4-oxo-3,4-dihydrophthalazin-1-yl)methyl)benzoyl)piperazin-1-yl)-2-oxoethoxy)ethoxy)ethylamino)-6-oxohexyl)(methyl)amino)phenyl)-13-methyl-3-oxo-2,3,6,7,8,11,12,13,14,15,16,17-dodecahydro-1H-cyclopenta[a]phenanthren-17-yl acetate] | > 8.00 | – | –
3 | C[C@]12Cc3cn[nH]c3C[C@@H]1CC[C@@H]1[C@@H]2CC[C@]2(C)[C@@H](OCCCCCC(=O)N3CCN(C(=O)c4cc(Cc5n[nH]c(=O)c6ccccc56)ccc4F)CC3)CC[C@@H]12 [Compound 1394, 4-(3-(4-(6-(((1S,3aS,3bR,5aS,10aS,10bS,12aS)-10a,12a-dimethyl-1,2,3,3a,3b,4,5,5a,6,7,10,10a,10b,11,12,12a-hexadecahydrocyclopenta[5,6]naphtho[1,2-f]indazol-1-yl)oxy)hexanoyl)piperazine-1-carbonyl)-4-fluorobenzyl)phthalazin-1(2H)-one] | – | 6.00 to 7.00 | –
4 | CC#C[C@]1(O)CC[C@H]2[C@@H]3CCC4=CC(=O)CCC4=C3[C@@H](c3ccc(N(C)CCCCCC(=O)N4CCN(C(=O)c5cc(Cc6n[nH]c(=O)c7ccccc67)ccc5F)CC4)cc3)C[C@@]21C [Compound 135, 4-(4-fluoro-3-(4-(6-((4-((8S,11R,13S,14S,17S)-17-hydroxy-13-methyl-3-oxo-17-(prop-1-ynyl)-2,3,6,7,8,11,12,13,14,15,16,17-dodecahydro-1H-cyclopenta[a]phenanthren-11-yl)phenyl)(methyl)amino)hexanoyl)piperazine-1-carbonyl)benzyl)phthalazin-1(2H)-one] | 7.00 to 8.00 | – | –
5 | Cn1ncnc1C1c2n[nH]c(=O)c3cc(F)cc(c23)N[C@@H]1c1ccc(NC(=O)CCCCCO[C@@H]2CC[C@H]3[C@@H]4CC[C@H]5CCCC[C@]5(C)[C@H]4CC[C@]23C)cc1 (stereo partly drawn) [Compound 1128, 6-((5R,8R,9S,10S,13S,14S,17R)-10,13-dimethylhexadecahydro-1H-cyclopenta[a]phenanthren-17-yloxy)-N-(4-((8S)-5-fluoro-9-(1-methyl-1H-1,2,4-triazol-5-yl)-3-oxo-3,7,8,9-tetrahydro-2H-pyrido[4,3,2-de]phthalazin-8-yl)phenyl)hexanamide] | – | – | pIC50 (Table 7, 3H-R1881 1 nM, read-out: AR binding): 5.00 to 6.00
6 | C[C@@]12CCC(=O)C[C@H]1CC[C@H]1[C@H]2CC[C@]2(C)[C@@H]1CC[C@H]2OCCCCCCNC(=O)c1cc(Cc2n[nH]c(=O)c3ccccc23)ccc1F (stereo in doubt) [Compound 1426, N-(6-((5R,8S,9R,10R,13R,14R,17R)-10,13-dimethyl-3-oxohexadecahydro-1H-cyclopenta[a]phenanthren-17-yloxy)hexyl)-2-fluoro-5-((4-oxo-3,4-dihydrophthalazin-1-yl)methyl)benzamide] | – | 6.00 to 7.00 | –
7 | C[C@]12C[C@H](CCCCCC(=O)N3CCN(C(=O)c4cc(Cc5n[nH]c(=O)c6ccccc56)ccc4F)CC3)C3=C4CCC(=O)C=C4CC[C@H]3[C@@H]1CCC2O (stereo partly drawn) [Compound 138, 4-(4-fluoro-3-(4-(6-((8S,11S,13S,14S)-17-hydroxy-13-methyl-3-oxo-2,3,6,7,8,11,12,13,14,15,16,17-dodecahydro-1H-cyclopenta[a]phenanthren-11-yl)hexanoyl)piperazine-1-carbonyl)benzyl)phthalazin-1(2H)-one] | – | 7.00 to 8.00 | –
8 | C[C@]12CC[C@H]3[C@@H](CCC4=CC(=O)CC[C@@]43C)[C@@H]1CC[C@@H]2C(=O)COCCCCCC(=O)N1CCN(C(=O)c2cc(Cc3n[nH]c(=O)c4ccccc34)ccc2F)CC1 [Compound 1386, 4-(3-(4-(6-(2-((8S,9S,10R,13S,14S,17S)-10,13-dimethyl-3-oxo-2,3,6,7,8,9,10,11,12,13,14,15,16,17-tetradecahydro-1H-cyclopenta[a]phenanthren-17-yl)-2-oxoethoxy)hexanoyl)piperazine-1-carbonyl)-4-fluorobenzyl)phthalazin-1(2H)-one] | 7.00 to 8.00 | – | –
9 | CC(=O)O[C@]1(C(C)=O)CC[C@H]2[C@@H]3CCC4=CC(=O)CCC4=C3[C@@H](c3ccc(N(C)CCCCCC(=O)N4CCN(C(=O)c5cc(Cc6n[nH]c(=O)c7ccccc67)ccc5F)CC4)cc3)C[C@@]21C [Compound 1378, (8S,11R,13S,14S,17R)-17-acetyl-11-(4-((6-(4-(2-fluoro-5-((4-oxo-3,4-dihydrophthalazin-1-yl)methyl)benzoyl)piperazin-1-yl)-6-oxohexyl)(methyl)amino)phenyl)-13-methyl-3-oxo-2,3,6,7,8,11,12,13,14,15,16,17-dodecahydro-1H-cyclopenta[a]phenanthren-17-yl acetate] | > 8.00 | – | –
